{"source": "patent US11090310B2", "about": "“Methods and compositions for treating hypertriglyceridemia” (THE REGENTS OF THE UNIVERSITY OF CALIFORNIA, priority 2016, dated 2021)", "key": {"[1]": {"experiment": "Plasma triglyceride levels of patients with GPIHBP1 autoantibodies under drug treatment (case follow-up)", "type": "in vivo, human", "conditions": "for effect of treatment on plasma triglycerides / hypertriglyceridemia (in words): case reports of single patients (111, 157, 164)"}, "[2]": {"system": "autoantibodies", "conditions": "in patients, literature reports; cited from earlier work"}, "[3]": {"biological_target": "T1, V5-tagged human LPL (Homo sapiens, UniProt P06858)", "T1 construct": "made in house", "T1 sequence (P06858 28-475)": "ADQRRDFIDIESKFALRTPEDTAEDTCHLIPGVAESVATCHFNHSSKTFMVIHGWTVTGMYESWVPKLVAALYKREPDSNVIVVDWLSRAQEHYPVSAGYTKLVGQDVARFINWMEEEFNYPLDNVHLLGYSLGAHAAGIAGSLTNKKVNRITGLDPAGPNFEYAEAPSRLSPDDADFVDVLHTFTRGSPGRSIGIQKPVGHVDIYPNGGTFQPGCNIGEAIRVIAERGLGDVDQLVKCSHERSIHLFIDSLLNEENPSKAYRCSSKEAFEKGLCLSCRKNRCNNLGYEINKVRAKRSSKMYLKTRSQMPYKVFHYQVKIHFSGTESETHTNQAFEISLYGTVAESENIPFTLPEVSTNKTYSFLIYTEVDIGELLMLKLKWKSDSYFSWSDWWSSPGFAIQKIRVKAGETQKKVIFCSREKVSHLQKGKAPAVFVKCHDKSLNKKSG", "experiment": "Cell-based LPL-GPIHBP1 binding assay of GPIHBP1 variants", "conditions": "transfected CHO pgsA-745 cells or HUVEC", "method": "Expression vectors for S-protein-tagged wild-type (wt) GPIHBP1, GPIHBP1-G175R, and GPIHBP1-W109S (or the empty vector) were transfected into CHO pgsA-745 cells or human umbilical vein endothelial cells (HUVEC). After 1 day, the cells were washed three times in PBS and incubated for 1 h at 4° C. with V5-tagged human LPL (900 ng/well). Then the cells were washed six times in PBS, and cell lysates were collected in RIPA buffer (Sigma) containing a protease inhibitor cocktail (Roche). Proteins were separated by SDS-PAGE, and western blots were performed under reducing conditions with a goat antibody against the S-protein tag (Abcam, 5 μg/ml), followed by an IRdye680-donkey anti-goat IgG (LI-COR, 1:2000) and an IRdye800-V5 antibody (1:500)."}}}
{"molecule": "COc1c(C)c2c(c(O)c1C/C=C(\\C)CCC(=O)OCCN1CCOCC1)C(=O)OC2", "note": "[Mycophenolate mofetil]", "values": [{"measurement": "effect of treatment on plasma triglycerides / hypertriglyceridemia (in words)", "setting": "[1]", "result": "failed to lower the plasma triglyceride levels"}, {"measurement": "Follow-up (mg/dl): follow-up plasma triglyceride levels after treatment", "setting": "[1]; single patients: 101 (prednisolone 10 mg/day, salazosulfapyridine 1000 mg/day), 111, 164 (mycophenolate mofetil 750 + 500 mg/day, hydroxychloroquine 100 mg/day)", "result": "2,573-4,085 mg/dl"}]}
{"molecule": "Belimumab", "values": [{"measurement": "reduction of autoantibodies", "setting": "[2]", "result": "reduce autoantibodies"}]}
{"molecule": "Rituximab", "values": [{"measurement": "reduction of autoantibodies", "setting": "[2]", "result": "reducing the production of autoantibodies in patients"}]}
{"molecule": "n−3 fatty acids", "values": [{"measurement": "effect of treatment on plasma triglycerides / hypertriglyceridemia (in words)", "setting": "[1]", "result": "resistant"}]}
{"molecule": "GPIHBP1-G175R: GPIHBP1 with G175R missense substitution in the carboxyl-terminal hydrophobic domain (protein, left off: small tags and cut ends, GPIHBP1 with G175R missense substitution in the carboxyl-terminal hydrophobic domain) QTQQEEEEEDEDHGPDDYDEEDEDEVEEEETNRLPGGRSRVLLRCYTCKSLPRDERCNLTQNCSHGQTCTTLIAHGNTESGLLTTHSTWCTDSCQPITKTVEGTQVTMTCCQSSLCNVPPWQSSRVQDPTG", "values": [{"measurement": "LPL binding by GPIHBP1 variant expressed on cells", "setting": "[3]", "result": "binds LPL avidly"}]}
{"molecule": "GPIHBP1-W109S: mutant GPIHBP1 which lacks the ability to bind LPL, used as control (protein, left off: small tags and cut ends) QTQQEEEEEDEDHGPDDYDEEDEDEVEEEETNRLPGGRSRVLLRCYTCKSLPRDERCNLTQNCSHGQTCTTLIAHGNTESGLLTTHSTSCTDSCQPITKTVEGTQVTMTCCQSSLCNVPPWQSSRVQDPTG", "values": [{"measurement": "LPL binding by GPIHBP1 variant expressed on cells", "setting": "[3]", "result": "lacks the ability to bind LPL"}]}
